Experimental data as given in PubChem BioAssay AID330 (DTP/NCI, 2004).
Several values for one entry are separate records, joined by “and”; a condition that tells them apart may be missing. Equal entries are not always repeated. Inconclusive results and toxic doses are left out. The calls were made as follows: active = survival T/C of 150% or more; inactive = T/C below 125% in these data.

System: P388 leukemia ip, CD2F1 mice, survival T/C
Experiment: NCI In Vivo Anticancer Drug Screen. Data for tumor model P388 Leukemia (intraperitoneal) in CD2F1 (CDF1) mice
Conditions: endpoint: median survival time, higher = longer survival
Procedure, shortened: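 Mice carrying the transplanted tumor received test compound or vehicle. Survival was recorded in each group, and the value is the treated-group measurement divided by that of the vehicle-treated control group.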

[1] = dose: 200.0 mg/kg/injection, schedule: Q01DX005 (ip), vehicle: Klucel (hydroxypropylcellulose) (HPC)
[2] = dose: 50.0 mg/kg/injection, schedule: Q01DX009 (ip), vehicle: saline with Tween-80
[3] = dose: 100.0 mg/kg/injection, schedule: Q01DX009 (ip), vehicle: saline with Tween-80
[4] = dose: 200.0 mg/kg/injection, schedule: Q01DX009 (ip), vehicle: saline with Tween-80
[5] = dose: 100.0 mg/kg/injection, schedule: Q01DX001 (ip), vehicle: saline with Tween-80
[6] = dose: 12.5 mg/kg/injection, schedule: Q01DX005 (ip), vehicle: saline with Tween-80
[7] = dose: 25.0 mg/kg/injection, schedule: Q01DX005 (ip), vehicle: saline with Tween-80
[8] = dose: 60.0 mg/kg/injection, schedule: Q01DX005 (ip), vehicle: saline with Tween-80
[9] = dose: 120.0 mg/kg/injection, schedule: Q01DX005 (ip), vehicle: saline with Tween-80
[10] = dose: 240.0 mg/kg/injection, schedule: Q01DX005 (ip), vehicle: saline with Tween-80
[11] = dose: 50.0 mg/kg/injection, schedule: Q01DX005 (ip), vehicle: Klucel (hydroxypropylcellulose) (HPC)
[12] = dose: 100.0 mg/kg/injection, schedule: Q01DX005 (ip), vehicle: Klucel (hydroxypropylcellulose) (HPC)

Measured: T/C

CC1=C/C(O)CC(=O)Cc2nc(co2)C(=O)N2CCC=C2C(=O)OC(C(C)C)C(C)/C=C\C(=O)NC/C=C\1 (configuration not stated)
inactive: [1] 111 % of control | dose: 400.0 mg/kg/injection, schedule: Q01DX005 (ip), vehicle: Klucel (hydroxypropylcellulose) (HPC) 114 % of control | dose: 1.0 micrograms/kg/injection, schedule: Q01DX009 (ip), vehicle: Klucel (hydroxypropylcellulose) (HPC) 104 % of control and 107 % of control and 115 % of control | dose: 2.0 micrograms/kg/injection, schedule: Q01DX009 (ip), vehicle: Klucel (hydroxypropylcellulose) (HPC) 111 % of control and 114 % of control and 121 % of control | dose: 4.0 micrograms/kg/injection, schedule: Q01DX009 (ip), vehicle: Klucel (hydroxypropylcellulose) (HPC) 111 % of control and 112 % of control and 121 % of control | dose: 8.0 micrograms/kg/injection, schedule: Q01DX009 (ip), vehicle: Klucel (hydroxypropylcellulose) (HPC) 104 % of control and 111 % of control and 123 % of control

COc1cc(OC)c(NC(=O)NNC(=O)C(=O)NC2CC2)cc1Cl
inactive: [2] 99 % of control | [3] 97 % of control | [4] 98 % of control

O=NN(CCCl)C(=O)Oc1ccc(Cl)cc1Cl
inactive: dose: 3.12 mg/kg/injection, schedule: Q01DX001 (ip), vehicle: saline with Tween-80 106 % of control | dose: 6.25 mg/kg/injection, schedule: Q01DX001 (ip), vehicle: saline with Tween-80 118 % of control | dose: 25.0 mg/kg/injection, schedule: Q01DX001 (ip), vehicle: saline with Tween-80 123 % of control | dose: 50.0 mg/kg/injection, schedule: Q01DX001 (ip), vehicle: saline with Tween-80 109 % of control | [5] 122 % of control | dose: 150.0 mg/kg/injection, schedule: Q01DX001 (ip), vehicle: saline with Tween-80 118 % of control

CCC(c1ccc(OC)cc1)C(NCC(=O)N/N=C1\C[C@@H]2[C@H](CC[C@]3(C)[C@@H](O)CC[C@@H]23)c2c(C)cc(O)cc21)c1ccc(OC)cc1 (some centres not stated)
inactive: [5] 106 % of control | dose: 200.0 mg/kg/injection, schedule: Q01DX001 (ip), vehicle: saline with Tween-80 107 % of control | dose: 400.0 mg/kg/injection, schedule: Q01DX001 (ip), vehicle: saline with Tween-80 101 % of control

O=[N+]([O-])c1nccn1CC(O)CCN1CCOCC1 (configuration not stated)
inactive: dose: 25.0 mg/kg/injection, schedule: Q01DX005 (ip), vehicle: saline 110 % of control | dose: 50.0 mg/kg/injection, schedule: Q01DX005 (ip), vehicle: saline 102 % of control | dose: 100.0 mg/kg/injection, schedule: Q01DX005 (ip), vehicle: saline 102 % of control | dose: 200.0 mg/kg/injection, schedule: Q01DX005 (ip), vehicle: saline 106 % of control | dose: 400.0 mg/kg/injection, schedule: Q01DX005 (ip), vehicle: saline 101 % of control

Cn1nc(-c2ccc(Cl)c(Cl)c2)nc2c(=O)n(C)c(=O)nc1-2
inactive: dose: 12.5 mg/kg/injection, schedule: Q01DX001 (ip), vehicle: Klucel (hydroxypropylcellulose) (HPC) 102 % of control | dose: 25.0 mg/kg/injection, schedule: Q01DX001 (ip), vehicle: Klucel (hydroxypropylcellulose) (HPC) 107 % of control | dose: 50.0 mg/kg/injection, schedule: Q01DX001 (ip), vehicle: Klucel (hydroxypropylcellulose) (HPC) 103 % of control and 114 % of control

N#C[S-].N#C[S-].[Au+3].[Au+3].[CH3-].[CH3-].[CH3-].[CH3-]
inactive: dose: 50.0 mg/kg/injection, schedule: Q04DX003 (ip), vehicle: saline with Tween-80 100 % of control | dose: 100.0 mg/kg/injection, schedule: Q04DX003 (ip), vehicle: saline with Tween-80 120 % of control

CCOC(=O)C1=CNc2c(C#N)cnn2C1(C(=O)OCC)c1cn(C)c2ccccc12 (configuration not stated)
inactive: dose: 6.25 mg/kg/injection, schedule: Q01DX005 (ip), vehicle: saline with Tween-80 99 % of control | [6] 95 % of control | [7] 87 % of control

Cc1cc(O)c(C=O)c2c1C(=O)Oc1c(CO)c(O)c3c(c1O2)C(O)OC3=O (configuration not stated)
inactive: [2] 124 % of control

COc1cc(Cc2n[nH]c(=S)n2-c2ccccc2)c(S(=O)(=O)N2CCOCC2)cc1OC
inactive: dose: 60.0 mg/kg/injection, schedule: Q01DX005 (ip), vehicle: saline 102 % of control | dose: 120.0 mg/kg/injection, schedule: Q01DX005 (ip), vehicle: saline 95 % of control | dose: 240.0 mg/kg/injection, schedule: Q01DX005 (ip), vehicle: saline 95 % of control

C=C1C(=O)OC2CC3(C)C=CC(=O)C(=C)C3CC12 (configuration not stated)
inactive: dose: 12.5 mg/kg/injection, schedule: Q04DX003 (ip), vehicle: Klucel (hydroxypropylcellulose) (HPC) 104 % of control | dose: 25.0 mg/kg/injection, schedule: Q04DX003 (ip), vehicle: Klucel (hydroxypropylcellulose) (HPC) 114 % of control

Cc1c(C)c(C[P+](CCP(c2ccccc2)c2ccccc2)(c2ccccc2)c2ccccc2)c(C)c(C)c1C[P+](CCP(c1ccccc1)c1ccccc1)(c1ccccc1)c1ccccc1
inactive: dose: 3.12 mg/kg/injection, schedule: Q04DX002 (ip), vehicle: saline with Tween-80 100 % of control | dose: 6.25 mg/kg/injection, schedule: Q04DX002 (ip), vehicle: saline with Tween-80 102 % of control | dose: 12.5 mg/kg/injection, schedule: Q04DX002 (ip), vehicle: saline with Tween-80 100 % of control and 101 % of control

CSc1nc(N)c(NS(=O)(=O)c2ccc(NC(C)=O)cc2)c(=O)[nH]1
inactive: [8] 93 % of control | [9] 91 % of control | [10] 96 % of control

O=S(=O)(OCCCl)c1cc(Cl)c(Cl)cc1Cl
inactive: [11] 105 % of control | [12] 114 % of control | [1] 90 % of control

COc1cccc(OC)c1OC(=O)Nc1ccccc1F
inactive: [8] 102 % of control | [9] 105 % of control | [10] 102 % of control

C/C(=C\C(=O)O)Cc1ccccc1 (tested in a mixture with another compound)
inactive: dose: 100.0 mg/kg/injection, schedule: Q04DX003 (ip), vehicle: other 108 % of control | dose: 200.0 mg/kg/injection, schedule: Q04DX003 (ip), vehicle: other 100 % of control | dose: 400.0 mg/kg/injection, schedule: Q04DX003 (ip), vehicle: other 108 % of control

CCOc1nc2ccc(NC(C)C(=O)N3CCN(CCc4ccccc4)CC3)cc2s1 (configuration not stated)
inactive: [11] 100 % of control | [12] 100 % of control | [1] 112 % of control

COc1cccc2c1C(=O)C1=C(C2=O)c2c(O)cc(CO)cc2C(O)C1O (configuration not stated)
inactive: dose: 6.25 mg/kg/injection, schedule: Q01DX005 (ip), vehicle: saline + Tween-80 + alcohol 113 % of control | dose: 12.5 mg/kg/injection, schedule: Q01DX005 (ip), vehicle: saline + Tween-80 + alcohol 113 % of control | dose: 25.0 mg/kg/injection, schedule: Q01DX005 (ip), vehicle: saline + Tween-80 + alcohol 120 % of control

Cc1cc2cc(N)ccc2[se]1
inactive: dose: 50.0 mg/kg/injection, schedule: Q01DX009 (ip), vehicle: suspension in saline 98 % of control | dose: 100.0 mg/kg/injection, schedule: Q01DX009 (ip), vehicle: saline 94 % of control | dose: 100.0 mg/kg/injection, schedule: Q01DX009 (ip), vehicle: suspension in saline 108 % of control | dose: 200.0 mg/kg/injection, schedule: Q01DX009 (ip), vehicle: saline 89 % of control | dose: 200.0 mg/kg/injection, schedule: Q01DX009 (ip), vehicle: suspension in saline 101 % of control

CCOC(=O)c1c(NC(=S)NC)sc2c1CCCC2
inactive: [2] 106 % of control | [3] 108 % of control | [4] 91 % of control

O=C(c1cc2ccccc2o1)N1CCN(Cc2ccccc2)CC1
inactive: dose: 50.0 mg/kg/injection, schedule: Q01DX009 (ip), vehicle: Klucel (hydroxypropylcellulose) (HPC) 102 % of control | dose: 100.0 mg/kg/injection, schedule: Q01DX009 (ip), vehicle: Klucel (hydroxypropylcellulose) (HPC) 101 % of control | dose: 200.0 mg/kg/injection, schedule: Q01DX009 (ip), vehicle: Klucel (hydroxypropylcellulose) (HPC) 109 % of control

CNc1ccccc1C(=O)NCCCN
inactive: [11] 98 % of control | [12] 95 % of control | [1] 95 % of control

Cc1ccccc1-n1c(=S)n(-c2ccc(Cl)cc2)c2nc3ccccc3nc1/c2=N/Nc1ccccc1
inactive: [6] 95 % of control | [7] 96 % of control | dose: 50.0 mg/kg/injection, schedule: Q01DX005 (ip), vehicle: saline with Tween-80 94 % of control

O=C(Nc1ccc([N+](=O)[O-])cc1)N1CCOCC1
inactive: dose: 12.5 mg/kg/injection, schedule: Q01DX009 (ip), vehicle: saline with Tween-80 97 % of control | dose: 25.0 mg/kg/injection, schedule: Q01DX009 (ip), vehicle: saline with Tween-80 89 % of control | [2] 86 % of control and 92 % of control | [4] 88 % of control

Nc1nc(N)nc(N)n1 (tested in a mixture with another compound)
inactive: [2] 98 % of control | [3] 92 % of control | [4] 88 % of control
